{"source": "paper PMC11197535", "about": "“Reprogramming of phytopathogen transcriptome by a non-bactericidal pesticide residue alleviates its virulence in rice” (Fundamental Research, 2022)", "target": "T1, TroK (Burkholderia plantarii, UniProt A0A0B6RRK0)", "T1 construct": "gene BGL_1c34780", "T1 sequence (A0A0B6RRK0 entry or part of it)": "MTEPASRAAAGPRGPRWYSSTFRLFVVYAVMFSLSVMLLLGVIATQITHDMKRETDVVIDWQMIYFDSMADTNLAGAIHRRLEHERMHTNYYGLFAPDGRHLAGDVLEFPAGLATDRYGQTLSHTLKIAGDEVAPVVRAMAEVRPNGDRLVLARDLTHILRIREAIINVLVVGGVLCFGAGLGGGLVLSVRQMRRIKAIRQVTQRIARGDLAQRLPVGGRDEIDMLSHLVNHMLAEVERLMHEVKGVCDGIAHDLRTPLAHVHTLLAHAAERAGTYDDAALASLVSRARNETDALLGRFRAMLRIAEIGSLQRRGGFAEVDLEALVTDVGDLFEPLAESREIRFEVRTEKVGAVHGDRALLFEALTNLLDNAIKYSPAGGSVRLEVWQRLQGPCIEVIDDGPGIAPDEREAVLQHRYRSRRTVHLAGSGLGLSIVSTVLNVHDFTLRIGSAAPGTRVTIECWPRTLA", "assay": "SPR (Biacore T200, multiple cycle kinetics)", "type": "binding", "settings": "TroK immobilised on CM7 chip by amine coupling; 10 mM PBS, pH 7.4, 150 mM NaCl, DMSO; free ATT", "source_text": "SPR (Biacore T200, multiple cycle kinetics) on TroK | thiazole could directly bind to the purified TroK in the transmembrane region"}
{"smiles": "Nc1nnc(S)s1", "note": "[ATT, 5-Amino-1,3,4-thiadiazole-2-thiol]", "values": [{"measurement": "Kd", "result": 728, "unit": "nM"}]}
